According to patent publication US12090163B2, “Pharmaceutical compositions” (CIPLA LIMITED, priority 2017, dated 2024):
pEC50: −log10 of the molar value. Structures can show the parent of a compound that is named as a salt.

Legend:
HIV-1 isolate JV-1083 = experiment: In vitro efficacy against HIV-1 in fresh PBMCs (reverse transcriptase activity in supernatant), isolate JV-1083; assay type: cell-based
Description: (§1) Fresh human PBMCs, seronegative for HIV and HBV, were isolated from screened donors (Biological Specialty Corporation, Colmar, PA). Cells were pelleted/washed 2-3 times by low speed centrifugation and re-suspension in PBS to remove contaminating platelets. The Leukophoresed blood was then diluted 1:1 with Dulbecco's Phosphate Buffered Saline (DPBS) and layered over 15 mL of Ficoll (GE Healthcare #17-1440-02) in 50 mL centrifuge tube and then centrifuged for 30 minutes at 600×g. Banded PBMCs were gently aspirated from the resulting interface and subsequently washed 2× with PBS by low speed centrifugation. After the final wash, cells were enumerated by tryptan blue exclusion and re-suspended at 1×10^6 cells/mL in RPMI 1640 supplemented with 15% Fetal Bovine Serum (FBS), and 2 mM L-glutamine, 4 μg/mL Phytohemagglutinin (PHA, Sigma). The cells were allowed to incubate for 48-72 hours at 37° C. After incubation, PBMCs were centrifuged and re-suspended in RPMI 1640 with 15% FBS, 2 mM L-glutamine, 100 U/mL penicillin, 100 μg/mL streptomycin, and approximately 100-150 U/mL recombinant human IL-2 (R&D Systems, Inc). IL-2 was included in the culture medium to maintain the cell division initiated by the PHA mitogenic stimulation. PBMCs were maintained in this medium at a concentration of 1-2×10^6 cells/mL with biweekly medium changes until used in the assay protocol. Cells were kept in culture for a maximum of two weeks before being deemed too old for use in assays and discarded. MDMs were depleted from the culture as the result of adherence to the tissue culture flask. […] Pooling (mixing) of mononuclear cells from more than one donor was used to minimize the variability observed between individual donors, which results from quantitative and qualitative differences in HIV infection and overall response to the PHA and IL-2 of primary lymphocyte populations. […]

HIV-1 isolate 89BZ_167 = experiment: In vitro efficacy against HIV-1 in fresh PBMCs (reverse transcriptase activity in supernatant), isolate 89BZ_167; assay type: cell-based
Description: as §1, with “C.” for “C. After incubation, PBMCs were centrifuged and re-suspended in RPMI 1640 with 15% FBS, 2 mM L-glutamine, 100 U/mL penicillin, 100 μg/mL streptomycin, and approximately 100-150 U/mL recombinant human IL-2 (R&D Systems, Inc). IL-2 was included in the culture medium to maintain the cell division initiated by the PHA mitogenic stimulation. PBMCs were maintained in this medium at a concentration of 1-2×10^6 cells/mL with biweekly medium changes until used in the assay protocol. Cells were kept in culture for a maximum of two weeks before being deemed too old for use in assays and discarded. MDMs were depleted from the culture as the result of adherence to the tissue culture flask.”

HBV = experiment: Primary anti-HBV assay, extracellular HBV DNA by real-time qPCR from HepG2 2.2.15 cells; assay type: cell-based, HBV wild-type strain ayw1
Description: The primary anti-HBV assay was performed by using real-time qPCR (TaqMan) to measure extracellular HBV DNA copy number associated with virions released from HepG2 2.2.15 cells. The HepG2 2.2.15 cell line was a stable human hepatoblastoma cell line that contains two copies of the HBV wild-type strain ayw1 genome and constitutively produces high levels of HBV. Antiviral compounds blocking any […] step of viral replication such as transcription, translation, pregenome encapsidation, reverse transcription, particle assembly and release can be identified and characterized using this cell line. Briefly, HepG2 2.2.15 cells were plated in 96-well microtiter plates at 1.5×10^4 cells/well in Dulbecco's Modified Eagle's Medium supplemented with 2% FBS, 380 μg/mL G418, 2.0 mM L-Glutamine, 100 units/mL Penicillin, 100 μg/mL Streptomycin, and 0.1 mM non-essential amino acids. Only the interior wells were utilized to reduce “edge effects” observed during cell culture; the exterior wells were filled with complete medium to help minimize sample evaporation. After 16-24 hours the confluent monolayer of HepG2 2.2.15 cells was washed and the medium was replaced with complete medium containing various concentrations of a test compound in triplicate. Lamivudine (3TC) was used as the positive control, while media alone was added to cells as a negative control (virus control, VC). Three days later the culture medium was replaced with fresh medium containing the appropriately diluted test compounds. Six days following the initial administration of the test compound, the cell culture supernatant was collected, treated with pronase and then used in a real-time quantitative TaqMan qPCR assay. The PCR-amplified HBV DNA was detected in real-time by monitoring increases in fluorescent signal that result from the exonucleolytic degradation of a quenched fluorescent probe molecule that hybridizes to the amplified HBV DNA. […] Antiviral activity was calculated from the reduction in HBV DNA levels (EC50 values determined). […] The Selectivity Index was calculated as CC50/EC50.

[1] = Cytotoxicity in HepG2 2.2.15 cells by MTS uptake assay; assay type: cell-based; settings: human, HepG2 2.2.15 cells (contain the HBV ayw1 genome), same assay plate

**Q.** With `C[C@H](Cn1cnc2c(N)ncnc21)OCP(=O)(OCOC(=O)C(C)(C)C)Oc1ccccc1` (stereo partly drawn) [((((((R)-1-(6-amino-9H-purin-9-yl)propan-2-yl)oxy)methyl)(phenoxy)phosphoryl)oxy)methyl pivalate fumarate] as the molecule, how does the “Selectivity Index” value (HIV-1 isolate JV-1083; HIV-1 isolate JV-1083, PBMCs) read?
**A.** 11241

**Q.** And the pEC50 (HIV-1 isolate JV-1083; Human immunodeficiency virus 1, PBMC, HIV-1 isolate JV-1083, PHA-stimulated fresh human PBMCs, six-seven days)?
**A.** 8.61

**Q.** What about the “Conclusion: activity against HIV-1” value (HIV-1 isolate JV-1083; against the two HIV-1 isolates (JV-1083, 89BZ_167) in PBMCs) of the same molecule?
**A.** potently active

**Q.** What about the “Selectivity Index” value (HIV-1 isolate 89BZ_167; HIV-1 isolate 89BZ_167, PBMCs) of the same molecule?
**A.** 1333

**Q.** What about the pEC50 (HIV-1 isolate 89BZ_167; Human immunodeficiency virus 1, PBMC, HIV-1 isolate 89BZ_167, PHA-stimulated fresh human PBMCs, six-seven days) of the same molecule?
**A.** 7.68

**Q.** What about the “Selectivity Index” value (HBV; CC50/EC50, HepG2 2.2.15 cells) of the same molecule?
**A.** >1250

**Q.** What about the “Conclusion: activity against HBV” value (HBV; HepG2 2.2.15 cells) of the same molecule?
**A.** potently active

**Q.** What about the pEC50 (HBV; Hepatitis B virus, 144 h, reduction in extracellular HBV DNA, HepG2 2.2.15 cells, six days) of the same molecule?
**A.** 7.10

**Q.** What about the CC50 at 6 days [1] of the same molecule?
**A.** > 100000 nM
